Data: the NIST ThermoML archive (doi:10.1016/j.jct.2005.04.018)

Conditions: Liquid, Vibrating tube method

CCCCCC[n+]1ccn(C)c1.O=S(=O)([N-]S(=O)(=O)C(F)(F)F)C(F)(F)F
Conditions | mass density [kg/m3]
298.15 K, 100 kPa | 1370.81
298.15 K, 1830 kPa | 1372.13
298.15 K, 10020 kPa | 1378.18
298.15 K, 14980 kPa | 1381.7
298.15 K, 19750 kPa | 1384.98
298.15 K, 25860 kPa | 1389.1
298.15 K, 31480 kPa | 1392.73
298.15 K, 37770 kPa | 1396.74
298.15 K, 44170 kPa | 1400.64
298.15 K, 50750 kPa | 1404.48
298.15 K, 59590 kPa | 1409.53
299.15 K, 100 kPa | 1369.96
299.15 K, 1830 kPa | 1371.27
299.15 K, 10020 kPa | 1377.3
299.15 K, 14980 kPa | 1380.81
299.15 K, 19750 kPa | 1384.12
299.15 K, 25860 kPa | 1388.22
299.15 K, 31480 kPa | 1391.88
299.15 K, 37770 kPa | 1395.86
299.15 K, 44170 kPa | 1399.77
299.15 K, 50750 kPa | 1403.7
299.15 K, 59590 kPa | 1408.77
300.15 K, 100 kPa | 1368.97
300.15 K, 1830 kPa | 1370.29
300.15 K, 10020 kPa | 1376.36
300.15 K, 14980 kPa | 1379.86
300.15 K, 19750 kPa | 1383.21
300.15 K, 25860 kPa | 1387.32
300.15 K, 31480 kPa | 1391
300.15 K, 37770 kPa | 1395.01
300.15 K, 44170 kPa | 1398.88
300.15 K, 50750 kPa | 1402.84
300.15 K, 59590 kPa | 1407.93
301.15 K, 100 kPa | 1368.11
301.15 K, 1830 kPa | 1369.42
301.15 K, 10020 kPa | 1375.49
301.15 K, 14980 kPa | 1379.01
301.15 K, 19750 kPa | 1382.28
301.15 K, 25860 kPa | 1386.44
301.15 K, 31480 kPa | 1390.11
301.15 K, 37770 kPa | 1394.07
301.15 K, 44170 kPa | 1398.06
301.15 K, 50750 kPa | 1401.99
301.15 K, 59590 kPa | 1407.14
302.15 K, 100 kPa | 1367.15
302.15 K, 1830 kPa | 1368.47
302.15 K, 10020 kPa | 1374.56
302.15 K, 14980 kPa | 1378.1
302.15 K, 19750 kPa | 1381.43
302.15 K, 25860 kPa | 1385.56
302.15 K, 31480 kPa | 1389.24
302.15 K, 37770 kPa | 1393.28
302.15 K, 44170 kPa | 1397.22
302.15 K, 50750 kPa | 1401.19
302.15 K, 59590 kPa | 1406.37
303.15 K, 100 kPa | 1366.24
303.15 K, 1830 kPa | 1367.56
303.15 K, 10020 kPa | 1373.64
303.15 K, 14980 kPa | 1377.17
303.15 K, 19750 kPa | 1380.47
303.15 K, 25860 kPa | 1384.59
303.15 K, 31480 kPa | 1388.3
303.15 K, 44170 kPa | 1396.31
303.15 K, 50750 kPa | 1400.29
303.15 K, 59590 kPa | 1405.51
308.15 K, 100 kPa | 1361.65
308.15 K, 1830 kPa | 1362.96
308.15 K, 10020 kPa | 1369.05
308.15 K, 14980 kPa | 1372.62
308.15 K, 19750 kPa | 1375.95
308.15 K, 25860 kPa | 1380.12
308.15 K, 31480 kPa | 1383.86
308.15 K, 37770 kPa | 1387.93
308.15 K, 44170 kPa | 1391.98
308.15 K, 50750 kPa | 1396.05
308.15 K, 59590 kPa | 1401.4
313.15 K, 100 kPa | 1357.01
313.15 K, 1830 kPa | 1358.32
313.15 K, 10020 kPa | 1364.45
313.15 K, 14980 kPa | 1368.01
313.15 K, 19750 kPa | 1371.36
313.15 K, 25860 kPa | 1375.57
313.15 K, 31480 kPa | 1379.34
313.15 K, 37770 kPa | 1383.47
313.15 K, 44170 kPa | 1387.6
313.15 K, 50750 kPa | 1391.76
313.15 K, 59590 kPa | 1397.25
318.15 K, 100 kPa | 1352.32
318.15 K, 1830 kPa | 1353.62
318.15 K, 10020 kPa | 1359.84
318.15 K, 14980 kPa | 1363.45
318.15 K, 25860 kPa | 1371.1
318.15 K, 31480 kPa | 1374.91
318.15 K, 37770 kPa | 1379.09
318.15 K, 44170 kPa | 1383.28
318.15 K, 50750 kPa | 1387.51
323.15 K, 100 kPa | 1348.05
323.15 K, 1830 kPa | 1349.36
323.15 K, 10020 kPa | 1355.55
323.15 K, 14980 kPa | 1359.13
323.15 K, 19750 kPa | 1362.5
323.15 K, 25860 kPa | 1366.73
323.15 K, 31480 kPa | 1370.56
323.15 K, 37770 kPa | 1374.72
323.15 K, 44170 kPa | 1378.88
323.15 K, 50750 kPa | 1383.17
325.15 K, 100 kPa | 1346.34
325.15 K, 1830 kPa | 1347.7
325.15 K, 10020 kPa | 1354.03
325.15 K, 14980 kPa | 1357.71
325.15 K, 19750 kPa | 1361.18
325.15 K, 25860 kPa | 1365.48
325.15 K, 31480 kPa | 1369.35
325.15 K, 37770 kPa | 1373.57
325.15 K, 44170 kPa | 1377.76
325.15 K, 50750 kPa | 1382.02
327.15 K, 100 kPa | 1344.39
327.15 K, 1830 kPa | 1345.74
327.15 K, 10020 kPa | 1352.05
327.15 K, 14980 kPa | 1355.75
327.15 K, 19750 kPa | 1359.21
327.15 K, 25860 kPa | 1363.58
327.15 K, 31480 kPa | 1367.53
327.15 K, 37770 kPa | 1371.82
327.15 K, 44170 kPa | 1376.09
327.15 K, 50750 kPa | 1380.39
329.15 K, 100 kPa | 1342.33
329.15 K, 1830 kPa | 1343.71
329.15 K, 10020 kPa | 1350.14
329.15 K, 14980 kPa | 1353.87
329.15 K, 19750 kPa | 1357.38
329.15 K, 25860 kPa | 1361.77
329.15 K, 31480 kPa | 1365.68
329.15 K, 37770 kPa | 1369.99
329.15 K, 44170 kPa | 1374.26
329.15 K, 50750 kPa | 1378.59
331.15 K, 100 kPa | 1340.37
331.15 K, 1830 kPa | 1341.75
331.15 K, 10020 kPa | 1348.2
331.15 K, 14980 kPa | 1351.91
331.15 K, 19750 kPa | 1355.44
331.15 K, 25860 kPa | 1359.84
331.15 K, 31480 kPa | 1363.79
331.15 K, 37770 kPa | 1368.1
331.15 K, 44170 kPa | 1372.39
331.15 K, 50750 kPa | 1376.72
333.15 K, 100 kPa | 1338.24
333.15 K, 1830 kPa | 1339.65
333.15 K, 10020 kPa | 1346.2
333.15 K, 14980 kPa | 1349.99
333.15 K, 19750 kPa | 1353.57
333.15 K, 25860 kPa | 1358.01
333.15 K, 31480 kPa | 1361.98
333.15 K, 37770 kPa | 1366.34
333.15 K, 44170 kPa | 1370.63
333.15 K, 50750 kPa | 1374.95
